According to patent US8110566B2, “Therapeutic agents 713” (AstraZeneca AB, priority 2009, dated 2012):

How the values were obtained:
[1] = target: T1, human Melanin Concentrating Hormone receptor 1 (MCHR1) (Homo sapiens, UniProt Q99705); experiment: MCHr1 IC50 (MCH binding assay / MCHR1 receptor activation assay)
T1 construct: host or cells: CHO-K1 (membranes)

[2] = target: T2, human histamine H3 receptors (Homo sapiens, UniProt Q9Y5N1); experiment: Histamine H3 SPA with [3H]-N-α-methylhistamine and/or GTPγS binding assay
T2 construct: human histamine H3 receptors (full-length H3, the most prevalent brain isoform 445); host or cells: CHO-K1, stably expressing (membranes)
T2 sequence (Q9Y5N1 whole entry, canonical isoform): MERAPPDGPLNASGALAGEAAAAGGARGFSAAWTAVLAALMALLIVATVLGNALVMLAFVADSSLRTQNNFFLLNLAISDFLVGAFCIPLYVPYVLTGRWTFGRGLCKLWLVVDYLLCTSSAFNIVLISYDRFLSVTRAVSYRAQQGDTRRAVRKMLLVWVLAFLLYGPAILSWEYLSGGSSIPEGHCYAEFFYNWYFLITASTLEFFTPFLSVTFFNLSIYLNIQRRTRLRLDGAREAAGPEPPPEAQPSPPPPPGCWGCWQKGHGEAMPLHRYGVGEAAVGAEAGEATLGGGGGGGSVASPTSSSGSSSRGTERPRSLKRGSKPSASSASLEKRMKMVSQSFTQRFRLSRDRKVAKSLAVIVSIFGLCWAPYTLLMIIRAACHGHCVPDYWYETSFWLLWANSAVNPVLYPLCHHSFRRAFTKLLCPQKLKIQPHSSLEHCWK

T1 sequence (Q99705 whole entry): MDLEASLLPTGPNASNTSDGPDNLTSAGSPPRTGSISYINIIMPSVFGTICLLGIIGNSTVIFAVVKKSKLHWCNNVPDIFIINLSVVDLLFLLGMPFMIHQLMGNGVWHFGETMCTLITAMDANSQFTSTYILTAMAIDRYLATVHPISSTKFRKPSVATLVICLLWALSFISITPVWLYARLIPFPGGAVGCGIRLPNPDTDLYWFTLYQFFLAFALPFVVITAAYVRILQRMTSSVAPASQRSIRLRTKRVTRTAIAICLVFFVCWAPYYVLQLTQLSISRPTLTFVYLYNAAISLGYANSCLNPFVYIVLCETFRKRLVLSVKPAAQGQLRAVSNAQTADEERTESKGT

| SMILES | IC50 [1] | IC50 [2] |
| --- | --- | --- |
| O=C(c1nnc(-c2ccccc2)o1)N1CC(Oc2ccc(CN3CC4(COC4)C3)c(Cl)c2)C1 [Example 1, (3-(4-(2-Oxa-6-azaspiro[3.3]heptan-6-ylmethyl)-3-chlorophenoxy)azetidin-1-yl)(5-phenyl-1,3,4-oxadiazol-2-yl)methanone] | 17 nM | 410 nM |
| O=C(c1nnc(-c2ccc(F)cc2)o1)N1CC(Oc2ccc(CN3CC4(COC4)C3)cc2)C1 [Example 6, (3-(4-(2-Oxa-6-azaspiro[3.3]heptan-6-ylmethyl)phenoxy)azetidin-1-yl)(5-(4-fluorophenyl)-1,3,4-oxadiazol-2-yl)methanone] | 24 nM |  |
| CC1(C)COC12CN(Cc1ccc(OC3CN(C(=O)c4nnc(-c5ccccc5)o4)C3)c(Cl)c1)C2 [Example 10, (3-(2-Chloro-4-((3,3-dimethyl-1-oxa-6-azaspiro[3.3]heptan-6-yl)methyl)phenoxy)azetidin-1-yl)(5-phenyl-1,3,4-oxadiazol-2-yl)methanone] | 30 nM |  |
| O=C(c1nnc(-c2ccc(OC(F)F)cc2)o1)N1CC(Oc2ccc(CN3CC4(COC4)C3)cc2)C1 [Example 7, (3-(4-(2-Oxa-6-azaspiro[3.3]heptan-6-ylmethyl)phenoxy)azetidin-1-yl)(5-(4-(difluoromethoxy)phenyl)-1,3,4-oxadiazol-2-yl)methanone] | 12 nM |  |
| O=C(c1nnc(-c2ccc(Cl)cc2)o1)N1CC(Oc2ccc(CN3CC4(COC4)C3)cc2)C1 [Example 2, (3-(4-(2-Oxa-6-azaspiro[3.3]heptan-6-ylmethyl)phenoxy)azetidin-1-yl)(5-(4-chlorophenyl)-1,3,4-oxadiazol-2-yl)methanone] | 10 nM | 620 nM |
| O=C(c1nnc(-c2ccccc2)o1)N1CC(Oc2ccc(CN3CC4(COC4)C3)cc2Cl)C1 [Example 8, (3-(4-(2-Oxa-6-azaspiro[3.3]heptan-6-ylmethyl)-2-chlorophenoxy)azetidin-1-yl)(5-phenyl-1,3,4-oxadiazol-2-yl)methanone] | 24 nM |  |
| COc1ccc(-c2nnc(C(=O)N3CC(Oc4ccc(CN5CC6(C5)OCC6(C)C)cc4)C3)o2)cc1 [Example 9, (3-(4-((3,3-Dimethyl-1-oxa-6-azaspiro[3.3]heptan-6-yl)methyl)phenoxy)azetidin-1-yl)(5-(4-methoxyphenyl)-1,3,4-oxadiazol-2-yl)methanone] | 27 nM |  |
| O=C(c1nnc(-c2ccccc2)o1)N1CC(Oc2ccc(CN3CC4(COC4)C3)cc2)C1 [Example 3, (3-(4-(2-Oxa-6-azaspiro[3.3]heptan-6-ylmethyl)phenoxy)azetidin-1-yl)(5-phenyl-1,3,4-oxadiazol-2-yl)methanone] |  | 800 nM |
| O=C(c1nnc(-c2ccccc2)o1)N1CC(Sc2ccc(CN3CC4(COC4)C3)cc2)C1 [Example 5, (3-(4-(2-Oxa-6-azaspiro[3.3]heptan-6-ylmethyl)phenylthio)azetidin-1-yl)(5-phenyl-1,3,4-oxadiazol-2-yl)methanone] | 17 nM |  |
